# Target: T1, lactoferrin (Bos taurus, UniProt P24627)
# T1 construct: gene LTF
# Assay: intrinsic fluorescence quenching titration (Stern-Volmer and double-logarithmic Ka at […] K), synchronous fluorescence, UV-vis difference spectra
# Type: binding
# Conditions: read-out: K a (L mol^-1) (converted)
# T1 sequence (P24627 20-708): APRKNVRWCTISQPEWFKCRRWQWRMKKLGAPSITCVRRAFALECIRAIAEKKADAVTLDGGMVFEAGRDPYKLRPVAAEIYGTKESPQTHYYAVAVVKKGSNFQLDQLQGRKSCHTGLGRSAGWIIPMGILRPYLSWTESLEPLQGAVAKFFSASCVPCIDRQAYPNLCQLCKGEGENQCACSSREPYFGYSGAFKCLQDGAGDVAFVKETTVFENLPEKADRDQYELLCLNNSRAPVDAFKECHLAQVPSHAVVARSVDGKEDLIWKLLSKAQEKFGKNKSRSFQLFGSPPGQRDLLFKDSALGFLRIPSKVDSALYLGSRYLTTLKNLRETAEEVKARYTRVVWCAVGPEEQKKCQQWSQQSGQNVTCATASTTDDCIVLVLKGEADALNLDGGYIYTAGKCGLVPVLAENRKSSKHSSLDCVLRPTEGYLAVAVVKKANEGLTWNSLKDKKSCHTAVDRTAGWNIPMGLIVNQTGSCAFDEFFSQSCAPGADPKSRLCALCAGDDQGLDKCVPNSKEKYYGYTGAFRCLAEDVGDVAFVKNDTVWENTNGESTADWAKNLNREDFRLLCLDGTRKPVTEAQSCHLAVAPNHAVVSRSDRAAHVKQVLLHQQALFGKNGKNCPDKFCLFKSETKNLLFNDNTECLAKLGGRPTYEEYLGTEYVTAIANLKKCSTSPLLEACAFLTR
smiles,measurement,value
"O=c1c(O)c(-c2ccc(O)cc2)oc2cc(O)cc(O)c12 [KAE, kaempferol]",Kd,43.3 µM

# Source: PMC11606874, “Structural and in vitro anticancer properties of the kaempferol–lactoferrin complex” (Food Science & Nutrition, 2024)
